Earlier results on one substance are cited in patent publication US20150093449A1, “Method of Using Silicon Substituted Phosphates to Improve Healing of Bone and Soft Tissue” (priority 2009, published 2015).

This series concerns staph epidermis.

silicon: the glycoprotein slime formation result is given as “inhibits”.
